Assay results as given in patent US20120252853A1, “Positive allosteric modulators of nicotinic acetylcholine receptor” (H. Lundbeck A/S, priority 2011, published 2012).

target: human α7 receptor (Homo sapiens, UniProt P36544); assay: α7 NNR flux assay (FDSS Ca assay); assay type: cell-based; settings: positive allosteric modulation; rat GH4C1 cell line stably expressing human α7; acetylcholine 20 μM; % modulation relative to PNU-120596 set to 100%
Protocol: In this version of the assay, the human α7 receptor is stably expressed in the rat GH4C1 cell line. The assay was used to identify positive allosteric modulators (PAMs) of the α7 receptor. Activation of the channel was measured by loading cells with the calcium-sensitive fluorescent dye Calcium-4 (Assay kit from Molecular Devices), and then measuring real-time changes in fluorescence upon treatment with test compounds.
The cell line ChanClone GH4C1-nAChRalpha7 from Genionics was seeded from frozen stock in 384-well plates in culture media 2-3 days before experiment to form an approximately 80% confluent layer on the day of experiment.
The cell culture were split into “22.5 cm×22.5 cm”-plates with approximately 100×10^3 cells/cm^2. After four days incubation in a humidified incubator at 37° C. and 5% CO2, it had grown to an 80-90% confluent layer, and the cells were harvested.
Two or three days before the experiment the cells were seeded in 384 well plates from Greiner bio-one (781946, CELLCOAT, Poly-D-Lysine, black, μClear).
The cells were seeded in 384 well plates with 30 μL/well (30000 cells/well) while stirring the cell suspension or otherwise preventing the cells from precipitating. The plates were incubated at room temperature for 30-45 minutes. The plates were placed in incubator for two days (37° C. and 5% CO2).
The loading buffer was 5% v/v Calcium-4 Kit and 2.5 mM Probenecid in assay buffer.
Culture media were removed from the cell plates and 20 μL loading buffer was added in each well. The cell plates were placed in trays and incubated 90 minutes in the incubator (37° C.). Thereafter the plates were incubated 30 minutes at room temperature, still protected from light. Now the cell plates were ready to run in the Functional Drug Screening System (FDSS) The assay buffer was HBSS with 20 mM HEPES, pH 7.4 and 3 mM CaCl2.
200 nL 10 mM compound solution in DMSO was diluted in 50 μL assay buffer. The final test concentrations in the cell plates were 20-10-5-2.5-1.25-0.625-0.312-0.156-0.078-0.039 μM. Assay buffer and 3 μM PNU-120596 were used for control:
The agonist acetylcholine was added to a final concentration of 20 μM (˜EC100). In the FDSS7000 the Ex480-Em540 was measured with 1 second intervals. The baseline was made of 5 frames before addition of test compounds, and 95 frames more were made before addition of acetylcholine. The measurement stopped 30 frames after the 2nd addition. Raw data for each well were collected as “the maximum fluorescence count” in the interval 100-131 seconds and as “the average fluorescence count” in the interval 96-100 seconds. The positive allosteric modulation in the 2nd addition was the enhancement of agonist response with test compound compared to agonist alone.
Results were calculated as % modulation of test compound compared to the reference PNU-120596 set to 100%.

Chain of human α7 receptor (P36544 23-502): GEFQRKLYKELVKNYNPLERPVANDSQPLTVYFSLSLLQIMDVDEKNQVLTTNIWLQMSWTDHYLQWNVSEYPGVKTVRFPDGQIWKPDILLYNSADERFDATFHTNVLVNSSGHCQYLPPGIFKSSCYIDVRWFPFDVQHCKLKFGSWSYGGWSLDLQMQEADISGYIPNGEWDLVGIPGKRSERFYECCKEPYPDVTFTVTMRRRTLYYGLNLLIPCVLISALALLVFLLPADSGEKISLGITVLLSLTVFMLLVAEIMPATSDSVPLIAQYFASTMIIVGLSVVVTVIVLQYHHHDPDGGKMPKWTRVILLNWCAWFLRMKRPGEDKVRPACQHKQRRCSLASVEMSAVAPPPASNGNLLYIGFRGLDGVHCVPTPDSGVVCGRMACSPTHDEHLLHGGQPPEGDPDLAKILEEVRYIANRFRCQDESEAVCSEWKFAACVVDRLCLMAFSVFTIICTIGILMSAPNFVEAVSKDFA

Row | Compound | EC50 [µM]
1 | Cc1cc2cc(CNC(=O)c3onc(C)c3Cl)ccc2[nH]1 [Compound 56, 4-chloro-3-methyl-N-[(2-methyl-1H-indol-5-yl)methyl]isoxazole-5-carboxamide] | 4.3
2 | Cc1cc2cc(C(C)NC(=O)c3oncc3C)ccc2[nH]1 (racemic) [Compound 16, 4-methyl-N-[1-(2-methyl-1H-indol-5-yl)ethyl]isoxazole-5-carboxamide] | 11
3 | Cc1cc(C(=O)N[C@H](C)c2cc3cc[nH]c3c(C)c2F)on1 [Compound 103] | 0.33
4 | Cc1cc2cc(CNC(=O)c3cc(CC(F)(F)F)no3)ccc2n1C(F)F [Compound 70, N-[[1-(difluoromethyl)-2-methyl-indol-5-yl]methyl]-3-(2,2,2-trifluoroethyl)isoxazole-5-carboxamide] | 9.4
5 | Cc1noc(C(=O)NCc2ccc3[nH]c(C)cc3c2)n1 [Compound 119, 3-methyl-N-[(2-methyl-1H-indol-5-yl)methyl]-1,2,4-oxadiazole-5-carboxamide] | 7.1
6 | Cc1cc2cc(CNC(=O)c3cnn(CC(F)(F)F)c3)ccc2n1C(F)F [Compound 69, N-[[1-(difluoromethyl)-2-methyl-indol-5-yl]methyl]-1-(2,2,2-trifluoroethyl)pyrazole-4-carboxamide] | 4.2
7 | Cc1cc(C(=O)NCc2ccc3c(ccn3C(F)(F)F)c2)on1 [Compound 80, 3-methyl-N-[[1-(trifluoromethyl)indol-5-yl]methyl]isoxazole-5-carboxamide] | 5.7
8 | Cc1cc(C(=O)NCc2ccc3[nH]c(C)c(C)c3c2)on1 [Compound 41, N-[(2,3-dimethyl-1H-indol-5-yl)methyl]-3-methyl-isoxazole-5-carboxamide] | 7.7
9 | Cc1cc2cc(CNC(=O)c3ccco3)ccc2[nH]1 [Compound 10, N-[(2-methyl-1H-indol-5-yl)methyl]furan-2-carboxamide] | 4
10 | Cc1cc(C(=O)NCc2cc3cc[nH]c3c(C)c2F)on1 [Compound 105, N-[(6-fluoro-7-methyl-1H-indol-5-yl)methyl]-3-methyl-isoxazole-5-carboxamide] | 2.9
11 | Cc1cc2cc([C@@H](C)NC(=O)c3cc(CCF)no3)ccc2[nH]1 [Compound 113, 3-(2-fluoroethyl)-N-[(1R)-1-(2-methyl-1H-indol-5-yl)ethyl]isoxazole-5-carboxamide] | 0.79
12 | Cc1cc(C(=O)NCc2ccc3[nH]c(C)cc3c2)n(C)n1 [Compound 55, 2,5-dimethyl-N-[(2-methyl-1H-indol-5-yl)methyl]pyrazole-3-carboxamide] | 7.3
13 | Cc1cc2cc(CNC(=O)c3cc(C)n(C)n3)ccc2[nH]1 [Compound 12, 1,5-dimethyl-N-[(2-methyl-1H-indol-5-yl)methyl]pyrazole-3-carboxamide] | 9.1
14 | O=C(NCc1ccc2c(ccn2C(F)(F)F)c1)c1cnn(CC(F)(F)F)c1 [Compound 81, 1-(2,2,2-trifluoroethyl)-N-[[1-(trifluoromethyl)indol-5-yl]methyl]pyrazole-4-carboxamide] | 6
15 | Cc1cc2cc(CNC(=O)c3cc4n(n3)CCC4)ccc2[nH]1 [Compound 118, N-[(2-methyl-1H-indol-5-yl)methyl]-5,5-dihydro-4H-pyrrolo[1,2-b]pyrazole-2-carboxamide] | 7.2
16 | Cc1cc2cc(CNC(=O)c3cnn(CCF)c3)ccc2[nH]1 [Compound 99, 1-(2-fluoroethyl)-N-[(2-methyl-1H-indol-5-yl)methyl]pyrazole-4-carboxamide] | 6.4
17 | Cc1cc2cc(CNC(=O)c3ccoc3)ccc2[nH]1 [Compound 11, N-[(2-methyl-1H-indol-5-yl)methyl]furan-3-carboxamide] | 2.4
18 | Cc1cc2cc(CNC(=O)c3c(C)noc3C)ccc2[nH]1 [Compound 27, 3,5-dimethyl-N-[(2-methyl-1H-indol-5-yl)methyl]isoxazole-4-carboxamide] | 0.44
19 | Cc1cc2cc(CNC(=O)c3ncc(C)o3)ccc2[nH]1 [Compound 116, 5-methyl-N-[(2-methyl-1H-indol-5-yl)methyl]oxazole-2-carboxamide] | 9.9
20 | Cc1cc2cc(CNC(=O)c3cnn(C4COC4)c3)ccc2[nH]1 [Compound 49, N-[(2-methyl-1H-indol-5-yl)methyl]-1-(oxetan-3-yl)pyrazole-4-carboxamide] | 6.5

Row | Compound | EC50 [µM]
21 | Cc1cc(C(=O)NCc2cc(F)c3[nH]c(C)cc3c2)on1 [Compound 109, N-[(7-fluoro-2-methyl-1H-indol-5-yl)methyl]-3-methyl-isoxazole-5-carboxamide] | 3.1
22 | COCCn1ccc(C(=O)NCc2ccc3[nH]c(C)cc3c2)n1 [Compound 95, 1-(2-methoxyethyl)-N-[(2-methyl-1H-indol-5-yl)methyl]pyrazole-3-carboxamide] | 7.7
23 | Cc1cc2cc(CNC(=O)c3noc(C)n3)ccc2[nH]1 [Compound 77, 5-methyl-N-[(2-methyl-1H-indol-5-yl)methyl]-1,2,4-oxadiazole-3-carboxamide] | 10.5
24 | Cc1cc(C(=O)NCc2ccc3[nH]cc(C)c3c2)on1 [Compound 17, 3-methyl-N-[(3-methyl-1H-indol-5-34)methyl]isoxazole-5-carboxamide] | 11
25 | Cc1cc(C(=O)NCc2ccc3c(c2)cc(C)n3C(F)F)on1 [Compound 64] | 9.3
26 | Cc1[nH]c2ccc(CNC(=O)c3cnn(CC(F)(F)F)c3)cc2c1C [Compound 101, N-[(2,3-dimethyl-1H-indol-5-yl)methyl]-1-(2,2,2-trifluoroethyl)pyrazole-4-carboxamide] | 2.9
27 | Cc1cc(C(=O)N[C@@H](C)c2ccc3[nH]c(C)cc3c2)on1 [Compound 62, 3-methyl-N-[(1S)-1-(2-methyl-1H-indol-5-yl)ethyl]isoxazole-5-carboxamide] | 9.1
28 | COc1cc(C(=O)NCc2ccc3[nH]c(C)cc3c2)on1 [Compound 19, 3-methoxy-N-[(2-methyl-1H-indol-5-yl)methyl]isoxazole-5-carboxamide] | 4.6
29 | Cc1cc2cc(CNC(=O)c3nnc(C)o3)ccc2[nH]1 [Compound 74, 5-methyl-N-[(2-methyl-1H-indol-5-yl)methyl]-1,3,4-oxadiazole-2-carboxamide] | 6
30 | Cc1c(C(=O)NCc2ccc3[nH]ccc3c2)sc(=O)n1C [Compound 59, N-(1H-indol-5-ylmethyl)-3,4-dimethyl-2-oxo-thiazole-5-carboxamide] | 7.7
31 | Cc1cc2cc(CNC(=O)c3cc(C(C)(C)C)on3)ccc2[nH]1 [Compound 87, 5-tert-butyl-N-[(2-methyl-1H-indol-5-yl)methyl]isoxazole-3-carboxamide] | 2.6
32 | Cc1cc2cc(CNC(=O)c3ccsc3)ccc2[nH]1 [Compound 6, N-[(2-methyl-1H-indol-5-yl)methyl]thiophene-3-carboxamide] | 0.52
33 | Cc1cc(C(=O)NCc2cc3cc[nH]c3cc2C)on1 [Compound 39, 3-methyl-N-[(6-methyl-1H-indol-5-yl)methyl]isoxazole-5-carboxamide] | 9.1
34 | Cc1cc(C(=O)NCc2ccc3c(c2)cc(C(F)(F)F)n3C)on1 [Compound 89, 3-methyl-N-[[1-methyl-2-(trifluoromethyl)indol-5-yl]methyl]isoxazole-5-carboxamide] | 5.6
35 | Cc1cc(C(=O)NCc2ccc3[nH]c(CC(F)(F)F)cc3c2)on1 [Compound 108, 3-methyl-N-[[2-(2,2,2-trifluoroethyl)-1H-indol-5-yl]methyl]isoxazole-5-carboxamide] | 7.7
36 | Cn1c(C(F)(F)F)cc2cc(CNC(=O)c3cnn(CC(F)(F)F)c3)ccc21 [Compound 88, N-[[1-methyl-2-(trifluoromethyl)indol-5-yl]methyl]-1-(2,2,2-trifluoroethyl)pyrazole-4-carboxamide] | 6.2
37 | Cc1cc2cc(CNC(=O)c3cscn3)ccc2[nH]1 [Compound 5, N-[(2-methyl-1H-indol-5-yl)methyl]thiazole-4-carboxamide] | 4.4
38 | Cc1cc(C(=O)NCc2ccc3[nH]c(C)cc3c2)sn1 [Compound 107, 3-methyl-N-[(2-methyl-1H-indol-5-yl)methyl]isothiazole-5-carboxamide] | 0.56
39 | Cc1cc2cc(CNC(=O)c3ccno3)ccc2[nH]1 [Compound 26, N-[(2-methyl-1H-indol-5-yl)methyl]isoxazole-5-carboxamide] | 7.37
